From article PMC3220491 (The Journal of Biological Chemistry, 2011)
Numbering of substitutions follows the chain as printed.

Columns and labels:
Experiment in all cases: SAT activity, acetyl-CoA decrease at […] nm
AtSAT-c [1] = biological target: T1, AtSAT-c (Arabidopsis thaliana, UniProt Q42538, G270A); format: biochemical
T1 sequence (Q42538 1-312 G270A): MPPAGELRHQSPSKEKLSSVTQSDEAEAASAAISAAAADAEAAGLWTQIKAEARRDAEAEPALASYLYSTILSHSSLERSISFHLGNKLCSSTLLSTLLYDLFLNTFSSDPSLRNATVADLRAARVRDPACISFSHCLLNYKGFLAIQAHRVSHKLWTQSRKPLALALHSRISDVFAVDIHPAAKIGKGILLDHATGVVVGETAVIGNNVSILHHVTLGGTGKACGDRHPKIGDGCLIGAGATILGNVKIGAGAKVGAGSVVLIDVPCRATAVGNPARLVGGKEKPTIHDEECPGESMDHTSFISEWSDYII

AtSAT-c [2] = biological target: T2, AtSAT-c (Arabidopsis thaliana, UniProt Q42538, C268P/G270A); format: biochemical
T2 sequence (Q42538 1-312 C268P/G270A): T1 sequence (Q42538 1-312 G270A) with C268P

Tg-N/At-C = format: biochemical, Noccaea goesingensis; Arabidopsis thaliana; settings: 1 mM L-serine, 0.1 mM acetyl-CoA, 50 mM Tris-HCl pH 8.0, room temperature; feedback inhibition
AtSAT-c [3] = biological target: T3, AtSAT-c (Arabidopsis thaliana, UniProt Q42538, C268P); format: biochemical
T3 sequence (Q42538 1-312 C268P): T1 sequence (Q42538 1-312 G270A) with C268P, A270G

TgSAT-c = biological target: T4, TgSAT-c (Noccaea goesingensis, UniProt Q6IWF8); format: biochemical
T4 sequence (Q6IWF8 1-311): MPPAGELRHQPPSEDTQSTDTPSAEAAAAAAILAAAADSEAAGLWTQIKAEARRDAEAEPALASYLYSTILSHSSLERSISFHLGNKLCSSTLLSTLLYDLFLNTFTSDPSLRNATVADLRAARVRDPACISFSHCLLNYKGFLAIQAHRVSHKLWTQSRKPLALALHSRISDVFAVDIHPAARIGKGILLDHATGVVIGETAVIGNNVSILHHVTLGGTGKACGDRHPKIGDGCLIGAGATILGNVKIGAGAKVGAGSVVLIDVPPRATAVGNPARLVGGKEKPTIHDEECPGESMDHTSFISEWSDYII

At-N/Tg-C = format: biochemical, Arabidopsis thaliana; Noccaea goesingensis; settings: 1 mM L-serine, 0.1 mM acetyl-CoA, 50 mM Tris-HCl pH 8.0, room temperature; feedback inhibition
TgSAT-p = biological target: T5, TgSAT-p (Noccaea goesingensis, UniProt Q6IWF9); format: biochemical
T5 sequence (Q6IWF9 1-319): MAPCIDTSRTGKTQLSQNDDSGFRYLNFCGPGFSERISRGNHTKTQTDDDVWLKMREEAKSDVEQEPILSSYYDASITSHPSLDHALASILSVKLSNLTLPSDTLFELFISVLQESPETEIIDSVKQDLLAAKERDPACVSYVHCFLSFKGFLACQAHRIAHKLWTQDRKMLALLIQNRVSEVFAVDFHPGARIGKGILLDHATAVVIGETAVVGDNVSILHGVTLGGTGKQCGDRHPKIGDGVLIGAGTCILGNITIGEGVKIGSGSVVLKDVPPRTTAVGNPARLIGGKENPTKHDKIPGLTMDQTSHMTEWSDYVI

TgSAT-m = biological target: T6, TgSAT-m (Noccaea goesingensis, UniProt Q6IWG0); format: biochemical
T6 sequence (Q6IWG0 1-395): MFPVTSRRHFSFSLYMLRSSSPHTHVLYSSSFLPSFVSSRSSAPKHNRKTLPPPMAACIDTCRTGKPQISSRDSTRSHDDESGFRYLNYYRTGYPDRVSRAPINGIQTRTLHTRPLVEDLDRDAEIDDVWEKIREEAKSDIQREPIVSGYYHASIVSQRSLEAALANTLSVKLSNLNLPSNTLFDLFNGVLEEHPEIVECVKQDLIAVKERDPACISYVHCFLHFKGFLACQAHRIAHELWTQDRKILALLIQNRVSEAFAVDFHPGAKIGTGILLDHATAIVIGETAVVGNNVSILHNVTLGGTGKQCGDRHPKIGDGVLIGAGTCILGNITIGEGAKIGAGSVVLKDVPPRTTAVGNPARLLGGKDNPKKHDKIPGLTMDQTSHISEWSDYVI

AtSAT-c [4] = biological target: T7, AtSAT-c (Arabidopsis thaliana, UniProt Q42538); format: biochemical
T7 sequence (Q42538 1-312): T1 sequence (Q42538 1-312 G270A) with A270G

IC50 (AtSAT-c [1]): 17.7 µM
IC50 (AtSAT-c [2]): > 100 µM
IC50 (Tg-N/At-C): 3.4 µM
IC50 (AtSAT-c [3]): 83.9 µM
IC50 (TgSAT-c): > 100 µM
IC50 (At-N/Tg-C): > 100 µM
IC50 (TgSAT-p): > 100 µM
IC50 (TgSAT-m): > 100 µM
IC50 (AtSAT-c [4]): 3.3 µM
SMILES: N[C@@H](CS)C(=O)O [L-Cys]
